Results: patent publication US5227485A, “Pyrazolo[3,4-d]pyrimidines with adenosine-like binding affinities” (Griffith University, priority 1990, dated 1993)

Experiments:
cerebellar cyclic GMP = details: in vivo; cited from earlier work
mouse spinal cord = details: at doses in which neuromuscular junction transmission was unaltered; cited from earlier work
mice = details: oral or intraperitoneal; cited from earlier work
A2 site = details: cited from earlier work
adenosine deaminase = details: cited from earlier work
A1 site = details: cited from earlier work
[1] = in vivo; rats (printed "rates"); cited from earlier work
benzodiazepine receptors = details: cited from earlier work
[2] = system: adenosine uptake system (nucleoside transporter); details: cited from earlier work
A1 receptor = biological target: T1, A1 receptor (Rattus norvegicus, UniProt P25099); assay: IC50 at the A1 receptor (^3 H-PIA); type: binding; details: for IC50: ^3 H-PIA
T1 sequence (P25099 1-326): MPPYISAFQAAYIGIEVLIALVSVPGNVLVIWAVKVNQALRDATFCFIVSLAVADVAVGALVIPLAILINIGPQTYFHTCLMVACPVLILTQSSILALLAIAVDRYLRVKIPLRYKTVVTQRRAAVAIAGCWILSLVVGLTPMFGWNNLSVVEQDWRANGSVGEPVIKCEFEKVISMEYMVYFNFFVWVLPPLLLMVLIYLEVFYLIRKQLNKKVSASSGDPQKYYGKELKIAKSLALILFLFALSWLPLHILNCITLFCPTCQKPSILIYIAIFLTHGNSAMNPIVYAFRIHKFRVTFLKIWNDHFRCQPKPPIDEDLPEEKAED

A2 receptor = A2 receptor (Rattus norvegicus, UniProt P30543); assay: IC50 at the A2 receptor (^3 H-CGS21680); type: binding
A1 surface receptors = details: both sites, in words; cited from earlier work
A2 surface receptors = details: cited from earlier work; for agonism at the A2 site: in words
rats = details: NECA vs R-PIA; cited from earlier work
[3] = system: noradrenaline-contracted guinea pig aorta; details: by interactions with A2 receptors; cited from earlier work
[4] = in vivo; cited from earlier work
animals = details: cited from earlier work
[5] = system: coronary vascular smooth muscle; details: cited from earlier work
[6] = because of antagonism of the effects of extracellular adenosine; cited from earlier work

Chain of A2 receptor (P30543 whole entry): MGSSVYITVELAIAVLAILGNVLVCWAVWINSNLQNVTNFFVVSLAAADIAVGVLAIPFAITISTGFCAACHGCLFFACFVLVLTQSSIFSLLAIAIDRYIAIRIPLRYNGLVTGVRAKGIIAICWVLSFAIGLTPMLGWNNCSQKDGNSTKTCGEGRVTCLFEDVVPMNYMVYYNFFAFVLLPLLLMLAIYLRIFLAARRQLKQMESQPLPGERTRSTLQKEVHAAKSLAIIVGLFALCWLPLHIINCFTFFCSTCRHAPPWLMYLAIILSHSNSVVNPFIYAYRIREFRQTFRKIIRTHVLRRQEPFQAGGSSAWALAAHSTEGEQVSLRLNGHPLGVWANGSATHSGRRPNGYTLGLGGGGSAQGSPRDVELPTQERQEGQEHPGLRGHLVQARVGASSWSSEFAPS

Cn1c(N)c2ncn([C@@H]3O[C@H](CO)[C@@H](O)[C@H]3O)c2nc1=O [1-methylisoguanosine]
cerebellar levels of cyclic GMP (cerebellar cyclic GMP): decreases cerebellar levels of cyclic GMP | polysynaptic responses in the mouse spinal cord (mouse spinal cord): blocked polysynaptic responses | muscle relaxation and hypothermia (mice): potent muscle relaxation and hypothermine | interaction with extracellular adenosine receptors, A2 site (A2 site): can interact with extracellular adenosine receptors | degradation by adenosine deaminase (adenosine deaminase): resistant to degradation by adenosine deaminase | interaction with extracellular adenosine receptors, A1 site (A1 site): can interact with extracellular adenosine receptors | effect on blood pressure and heart rate [1]: reduced blood pressure and heart rate | Ki (benzodiazepine receptors; benzodiazepine receptors, read-out: Ki vs ^3 H-diazepam binding): ~17000 nM | potency at benzodiazepine receptors relative to inosine and hypoxanthine (benzodiazepine receptors; comparison in words): several hundred fold more potent than inosine and hypoxanthine | substrate for, or inhibitor of, the adenosine uptake system [2]: poor substrate for, or inhibitor of, the adenosine uptake system

CCCCSc1cc(Nc2ccccc2)nc(SC(C)C(N)=O)n1 (centres unmarked) [Compound 1, (2-n-butylthio)-4-(N-phenyl)-6-propionamidyl thiopyrimidine]
affinity for the A1 receptor (A1 receptor; in words): moderate affinity

CCC(Sc1nc(SC(CC)C(N)=O)c2cnn(-c3ccccc3)c2n1)C(N)=O (stereo not drawn) [Compound 4, 4,6-bis-α-carbamoylpropylthio-1-phenylpyrazolo[3,4-d]pyrimidine]
IC50 (A1 receptor): 108 nM | potency of butanamide side chain versus propionamide moiety in FIG. 3 (A1 receptor; comparison in words): increased potency over the proprionamide moiety

CCC(Sc1nc2c(cnn2-c2ccccc2)c(=S)[nH]1)C(N)=O (stereo not drawn) [Compound 5, 6-α-carbamoylpropylthio-4-mercapto-1-phenylpyrazolo[3,4-d]pyrimidine]
IC50 (A1 receptor): 492 nM

CCNC(=O)C(C)Sc1nc(SC(C)C(=O)NCC)c2cnn(-c3ccccc3)c2n1 (stereo not drawn) [Compound 6, 4,6-Bis-α-N-ethylcarbamoylethylthio-1-phenylpyrazolo[3,4-d]pyrimidine]
IC50 (A1 receptor): 580 nM | IC50 (A2 receptor): 570 nM

CCNC(=O)C(C)Sc1nc(S)c2cnn(-c3ccccc3)c2n1 (stereo not drawn) [Compound 7, 6-α-N-Ethylcarbamoylethylthio-4-mercapto-1-phenylpyrazolo[3,4-d]pyrimidine]
IC50 (A1 receptor): 490 nM | IC50 (A2 receptor): 540 nM

CCNC(=O)C(C)Sc1nc(N)c2cnn(-c3ccccc3)c2n1 (centres unmarked) [Compound 8]
IC50 (A1 receptor): 17 nM

CCNC(=O)[C@H]1O[C@@H](n2cnc3c(N)ncnc32)[C@H](O)[C@@H]1O [NECA, 5'-N-ethyl carboxamidoadenosine]
agonism at the A1 site (A1 surface receptors): non-selective and are good agonists at both sites | agonist potency at A2 surface receptors (A2 surface receptors; adenylate cyclase systems, NECA vs R-PIA): more potent agonist at A2 surface receptors than is R-N^6 -phenylisopropyl adenosine (R-PIA) | agonism at the A2 site (A2 surface receptors): non-selective and are good agonists at both sites | anticonvulsant activity in reductions of amygdaloid-kindled seizures (rats): slightly more anticonvulsant activity than R-PIA

C[C@H](Cc1ccccc1)Nc1ncnc2c1ncn2[C@@H]1O[C@H](CO)[C@@H](O)[C@H]1O [PIA]
agonism at the A2 site (A2 surface receptors): reduced agonistic activity

Nc1ncnc2c1ncn2[C@@H]1O[C@H](CO)[C@@H](O)[C@H]1O [adenosine]
agonism at the A1 site (A1 surface receptors): non-selective and are good agonists at both sites | agonism at the A2 site (A2 surface receptors): non-selective and are good agonists at both sites | relaxation of noradrenaline-contracted guinea pig aorta [3]: relaxed | activity of adenosine in words [4]: profound hypotensive, antispasmodic, sedative and vasodilatory activity | effects when given to animals (animals; intraperitoneal, alone): minimal or no effects | effects in the presence of an adenosine uptake inhibitor and/or adenosine deaminase inhibitor (animals; with adenosine uptake inhibitor and/or adenosine deaminase inhibitor): can cause muscle relaxation and hypothermia | relaxation of coronary vascular smooth muscle [5]: causes relaxation

Cn1c(=O)c2c(ncn2C)n(C)c1=O [caffeine]
central stimulant action [6]: central stimulant action

CN1C(=O)CN=C(c2ccccc2)c2cc(Cl)ccc21 [diazepam]
cerebellar levels of cyclic GMP (cerebellar cyclic GMP): decreases cerebellar levels of cyclic GMP | Kd (benzodiazepine receptors; radioligand, read-out: Kd of ^3 H-diazepam binding): 11 nM

Cn1c(=O)c2[nH]cnc2n(C)c1=O [theophylline]
central stimulant action [6]: central stimulant action
